# From the supplement of paper PMC10307832
# Key:
# Assay in all cases: relative viability (nuclei count vs DMSO), 5 days (fraction); higher = more cells survive
# Adavosertib + Pemetrexed = compound: C=CCn1c(=O)c2cnc(Nc3ccc(N4CCN(C)CC4)cc3)nc2n1-c1cccc(C(C)(C)O)n1 [Adavosertib] + Nc1nc2[nH]cc(CCc3ccc(C(=O)N[C@@H](CCC(=O)O)C(=O)O)cc3)c2c(=O)[nH]1 [Pemetrexed] (partner 0.2 µM)
# Procedure, shortened: (§1)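 Five library-drug doses in √10 steps were combined with a fixed anchor-drug dose, or a single drug was given alone, by pin tool to lung cancer cell lines in 1536-well plates the day after seeding. Nuclei were stained and counted after 5 days. Relative viability is the nuclei count in treated wells over that in vehicle wells, taken as the median of duplicate plates.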
# Nelarabine + Decitabine = compound: COc1nc(N)nc2c1ncn2[C@@H]1O[C@H](CO)[C@@H](O)[C@@H]1O [Nelarabine] + Nc1ncn([C@H]2C[C@H](O)[C@@H](CO)O2)c(=O)n1 [Decitabine] (partner 2 µM)
# Procedure, shortened: as §1
# Nelarabine + Alpelisib = compound: COc1nc(N)nc2c1ncn2[C@@H]1O[C@H](CO)[C@@H](O)[C@@H]1O [Nelarabine] + Cc1nc(NC(=O)N2CCC[C@H]2C(N)=O)sc1-c1ccnc(C(C)(C)C(F)(F)F)c1 [Alpelisib] (partner 2 µM)
# Procedure, shortened: as §1
# [1] = compound: C=CCn1c(=O)c2cnc(Nc3ccc(N4CCN(C)CC4)cc3)nc2n1-c1cccc(C(C)(C)O)n1 [Adavosertib] + CC(=O)c1c(C)c2cnc(Nc3ccc(N4CCNCC4)cn3)nc2n(C2CCCC2)c1=O [Palbociclib] (partner 0.5 µM)
# Procedure, shortened: as §1
cell line,measurement,setting,value
SK-MES-1,relative viability,Adavosertib + Pemetrexed; first compound 0.01 µM,0.958
same,relative viability,Adavosertib + Pemetrexed; first compound 0.03162 µM,0.916
same,relative viability,Adavosertib + Pemetrexed; first compound 0.1 µM,0.754
same,relative viability,Adavosertib + Pemetrexed; first compound 0.3162 µM,0.338
same,relative viability,Nelarabine + Decitabine; first compound 0.01 µM,0.359
same,relative viability,Nelarabine + Decitabine; first compound 0.03162 µM,0.347
same,relative viability,Nelarabine + Decitabine; first compound 0.1 µM,0.375
same,relative viability,Nelarabine + Decitabine; first compound 0.3162 µM,0.422
same,relative viability,Nelarabine + Decitabine; first compound 1 µM,0.35
same,relative viability,Nelarabine + Alpelisib; first compound 0.01 µM,1.01
same,relative viability,Nelarabine + Alpelisib; first compound 0.03162 µM,1
same,relative viability,Nelarabine + Alpelisib; first compound 0.1 µM,0.937
same,relative viability,Nelarabine + Alpelisib; first compound 0.3162 µM,0.964
same,relative viability,Nelarabine + Alpelisib; first compound 1 µM,0.948
same,relative viability,[1]; first compound 0.01 µM,0.343
same,relative viability,[1]; first compound 0.03162 µM,0.337
same,relative viability,[1]; first compound 0.1 µM,0.305
same,relative viability,[1]; first compound 0.3162 µM,0.25
LOU-NH91,relative viability,Adavosertib + Pemetrexed; first compound 0.01 µM,0.371
same,relative viability,Adavosertib + Pemetrexed; first compound 0.03162 µM,0.371
same,relative viability,Adavosertib + Pemetrexed; first compound 0.1 µM,0.338
same,relative viability,Adavosertib + Pemetrexed; first compound 0.3162 µM,0.36
same,relative viability,Nelarabine + Decitabine; first compound 0.01 µM,0.896
same,relative viability,Nelarabine + Decitabine; first compound 0.03162 µM,0.755
same,relative viability,Nelarabine + Decitabine; first compound 0.1 µM,0.766
same,relative viability,Nelarabine + Decitabine; first compound 0.3162 µM,0.802
same,relative viability,Nelarabine + Decitabine; first compound 1 µM,0.809
same,relative viability,Nelarabine + Alpelisib; first compound 0.01 µM,0.74
same,relative viability,Nelarabine + Alpelisib; first compound 0.03162 µM,0.704
same,relative viability,Nelarabine + Alpelisib; first compound 0.1 µM,0.661
same,relative viability,Nelarabine + Alpelisib; first compound 0.3162 µM,0.706
same,relative viability,Nelarabine + Alpelisib; first compound 1 µM,0.738
same,relative viability,[1]; first compound 0.01 µM,0.609
same,relative viability,[1]; first compound 0.03162 µM,0.497
same,relative viability,[1]; first compound 0.1 µM,0.548
same,relative viability,[1]; first compound 0.3162 µM,0.531
HCC-78,relative viability,Adavosertib + Pemetrexed; first compound 0.01 µM,0.921
same,relative viability,Adavosertib + Pemetrexed; first compound 0.03162 µM,0.922
same,relative viability,Adavosertib + Pemetrexed; first compound 0.1 µM,0.959
same,relative viability,Adavosertib + Pemetrexed; first compound 0.3162 µM,0.887
same,relative viability,Nelarabine + Decitabine; first compound 0.01 µM,0.713
same,relative viability,Nelarabine + Decitabine; first compound 0.03162 µM,0.639
same,relative viability,Nelarabine + Decitabine; first compound 0.3162 µM,0.843
same,relative viability,Nelarabine + Decitabine; first compound 1 µM,0.737
same,relative viability,Nelarabine + Alpelisib; first compound 0.01 µM,0.349
same,relative viability,Nelarabine + Alpelisib; first compound 0.03162 µM,0.336
same,relative viability,Nelarabine + Alpelisib; first compound 0.3162 µM,0.349
same,relative viability,Nelarabine + Alpelisib; first compound 1 µM,0.4
same,relative viability,[1]; first compound 0.01 µM,0.531
same,relative viability,[1]; first compound 0.03162 µM,0.525
same,relative viability,[1]; first compound 0.1 µM,0.508
same,relative viability,[1]; first compound 0.3162 µM,0.428
NCI-H322M,relative viability,Adavosertib + Pemetrexed; first compound 0.01 µM,0.593
same,relative viability,Adavosertib + Pemetrexed; first compound 0.03162 µM,0.625
same,relative viability,Adavosertib + Pemetrexed; first compound 0.1 µM,0.52
same,relative viability,Adavosertib + Pemetrexed; first compound 0.3162 µM,0.469
same,relative viability,Nelarabine + Decitabine; first compound 0.01 µM,0.68
same,relative viability,Nelarabine + Decitabine; first compound 0.03162 µM,0.662
same,relative viability,Nelarabine + Decitabine; first compound 0.1 µM,0.659
same,relative viability,Nelarabine + Decitabine; first compound 0.3162 µM,0.718
same,relative viability,Nelarabine + Decitabine; first compound 1 µM,0.678
same,relative viability,Nelarabine + Alpelisib; first compound 0.01 µM,0.926
same,relative viability,Nelarabine + Alpelisib; first compound 0.03162 µM,0.792
same,relative viability,Nelarabine + Alpelisib; first compound 0.1 µM,0.677
same,relative viability,Nelarabine + Alpelisib; first compound 0.3162 µM,0.772
same,relative viability,Nelarabine + Alpelisib; first compound 1 µM,0.836
same,relative viability,[1]; first compound 0.01 µM,0.439
same,relative viability,[1]; first compound 0.03162 µM,0.479
same,relative viability,[1]; first compound 0.1 µM,0.417
same,relative viability,[1]; first compound 0.3162 µM,0.463
HCC-15,relative viability,Adavosertib + Pemetrexed; first compound 0.01 µM,0.221
same,relative viability,Adavosertib + Pemetrexed; first compound 0.03162 µM,0.227
same,relative viability,Adavosertib + Pemetrexed; first compound 0.1 µM,0.216
same,relative viability,Adavosertib + Pemetrexed; first compound 0.3162 µM,0.229
same,relative viability,Nelarabine + Decitabine; first compound 0.01 µM,0.739
same,relative viability,Nelarabine + Decitabine; first compound 0.03162 µM,0.58
same,relative viability,Nelarabine + Decitabine; first compound 0.1 µM,0.656
same,relative viability,Nelarabine + Decitabine; first compound 0.3162 µM,0.63
same,relative viability,Nelarabine + Decitabine; first compound 1 µM,0.731
same,relative viability,Nelarabine + Alpelisib; first compound 0.01 µM,1.09
same,relative viability,Nelarabine + Alpelisib; first compound 0.03162 µM,0.822
same,relative viability,Nelarabine + Alpelisib; first compound 0.1 µM,0.847
same,relative viability,Nelarabine + Alpelisib; first compound 0.3162 µM,0.983
same,relative viability,Nelarabine + Alpelisib; first compound 1 µM,0.934
same,relative viability,[1]; first compound 0.01 µM,0.744
same,relative viability,[1]; first compound 0.03162 µM,0.706
same,relative viability,[1]; first compound 0.1 µM,0.739
same,relative viability,[1]; first compound 0.3162 µM,0.899
A-427,relative viability,Adavosertib + Pemetrexed; first compound 0.01 µM,0.97
same,relative viability,Adavosertib + Pemetrexed; first compound 0.03162 µM,0.905
same,relative viability,Adavosertib + Pemetrexed; first compound 0.1 µM,0.892
same,relative viability,Adavosertib + Pemetrexed; first compound 0.3162 µM,0.893
same,relative viability,Nelarabine + Decitabine; first compound 0.01 µM,0.551
same,relative viability,Nelarabine + Decitabine; first compound 0.03162 µM,0.576
same,relative viability,Nelarabine + Decitabine; first compound 0.1 µM,0.476
same,relative viability,Nelarabine + Decitabine; first compound 0.3162 µM,0.528
same,relative viability,Nelarabine + Decitabine; first compound 1 µM,0.535
same,relative viability,Nelarabine + Alpelisib; first compound 0.01 µM,0.851
same,relative viability,Nelarabine + Alpelisib; first compound 0.03162 µM,1.06
same,relative viability,Nelarabine + Alpelisib; first compound 0.1 µM,1.11
same,relative viability,Nelarabine + Alpelisib; first compound 0.3162 µM,1.07
same,relative viability,Nelarabine + Alpelisib; first compound 1 µM,1.05
same,relative viability,[1]; first compound 0.01 µM,0.517
same,relative viability,[1]; first compound 0.03162 µM,0.567
same,relative viability,[1]; first compound 0.1 µM,0.538
same,relative viability,[1]; first compound 0.3162 µM,0.52
NCI-H1793,relative viability,Adavosertib + Pemetrexed; first compound 0.01 µM,0.808
same,relative viability,Adavosertib + Pemetrexed; first compound 0.03162 µM,0.913
same,relative viability,Adavosertib + Pemetrexed; first compound 0.1 µM,0.756
same,relative viability,Adavosertib + Pemetrexed; first compound 0.3162 µM,0.782
same,relative viability,Nelarabine + Decitabine; first compound 0.01 µM,0.291
same,relative viability,Nelarabine + Decitabine; first compound 0.1 µM,0.535
same,relative viability,Nelarabine + Decitabine; first compound 0.3162 µM,0.595
same,relative viability,Nelarabine + Decitabine; first compound 1 µM,0.513
same,relative viability,Nelarabine + Alpelisib; first compound 0.01 µM,0.748
same,relative viability,Nelarabine + Alpelisib; first compound 0.03162 µM,0.736
same,relative viability,Nelarabine + Alpelisib; first compound 0.1 µM,0.625
same,relative viability,Nelarabine + Alpelisib; first compound 0.3162 µM,0.68
same,relative viability,Nelarabine + Alpelisib; first compound 1 µM,0.693
same,relative viability,[1]; first compound 0.01 µM,0.293
same,relative viability,[1]; first compound 0.03162 µM,0.293
same,relative viability,[1]; first compound 0.1 µM,0.298
same,relative viability,[1]; first compound 0.3162 µM,0.275
NCI-H460,relative viability,Adavosertib + Pemetrexed; first compound 0.01 µM,0.0616
same,relative viability,Adavosertib + Pemetrexed; first compound 0.03162 µM,0.0693
same,relative viability,Adavosertib + Pemetrexed; first compound 0.1 µM,0.0573
same,relative viability,Adavosertib + Pemetrexed; first compound 0.3162 µM,0.0705
same,relative viability,Nelarabine + Decitabine; first compound 0.01 µM,0.707
same,relative viability,Nelarabine + Decitabine; first compound 0.03162 µM,0.726
same,relative viability,Nelarabine + Decitabine; first compound 0.1 µM,0.476
same,relative viability,Nelarabine + Decitabine; first compound 0.3162 µM,0.525
same,relative viability,Nelarabine + Decitabine; first compound 1 µM,0.539
same,relative viability,Nelarabine + Alpelisib; first compound 0.01 µM,1.03
same,relative viability,Nelarabine + Alpelisib; first compound 0.03162 µM,0.411
same,relative viability,Nelarabine + Alpelisib; first compound 0.1 µM,0.565
same,relative viability,Nelarabine + Alpelisib; first compound 0.3162 µM,0.66
same,relative viability,Nelarabine + Alpelisib; first compound 1 µM,0.371
same,relative viability,[1]; first compound 0.01 µM,0.182
same,relative viability,[1]; first compound 0.03162 µM,0.19
same,relative viability,[1]; first compound 0.1 µM,0.181
same,relative viability,[1]; first compound 0.3162 µM,0.125
